Experimental data taken from patent US9682062B2, “Pharmaceutical compositions and method for inhibiting angiogenesis” (Industrial Technology Research Institute, priority 2012, dated 2017).

Key:
PBMCs = test: Toxicity test for normal cells, PBMCs (Alamarblue cell viability assay); type: cell-based; conditions: PBMC, 72 hours incubation, read-out: IC50 of a test drug for PBMCs
Protocol: In order to investigate whether the inhibiting effects mentioned above of the crude extract (CBT-143-S) and the fractional extract (CBT-143-S-F6F7) are due to the toxicity thereof or not, cell viability assay for normal cells, PBMCs, and growth inhibition assays for HUVECs were performed to the crude extract (CBT-143-S) and the fractional extract (CBT-143-S-F6F7), and a commercial clinical drug, sorafenib, were used for comparison as a reference.
Alamarblue is a plant dye that is usually blue. The dye decomposes during cell proliferation and reduces from blue to pink, and a rise in O.D. at 570 nm can be determined. Conversely, the more dead cells there are, the lower the O.D. value is determined to be.
PBMC cells (1×10^5 cells/well) were inoculated in a 96-well plate, and the crude extract (CBT-143-S) and the fractional extract (CBT-143-S-F6F7) samples, etc. with different concentrations (300, 100, 30, 10, 3 and 1 μg/mL) were added to the plate. After incubating for 72 hours, Alamarblue was added to the plate and incubated at 37° C. for 24 hours, and then the O.D. at 570 nm/600 nm thereof was determined by an ELISA reader. After that, the obtained O.D. values were substituted into the formal calculation as follows: […]

[1] = test system: Hep-3B conditional medium (CM)-induced angiogenesis; test: Matrigel plugs assay, in vivo Hep-3B conditional medium-induced angiogenesis; parameters: species or system BALB/c mice; conditions: orally administered every day 30 mg/kg/day, 14 days
Protocol: Through a subcutaneous injection to BALB/c mice to form Matrigel plugs, an evaluation was made of whether a test substance was capable of inhibiting angiogenesis induced by vascular endothelial growth factor or Hep-3B conditional medium (CM).
Matrigel is extracted from the Engelbreth-Holm-Swarm (EHS) mouse sarcoma and contains rich extracellular matrix proteins and contains various factors need by vascular growth. In a condition of room temperature and 37° C., Matrigel is capable of polymerize as a solid gel from, and can provide a better growth environment for vascular endothelial cells.
Matrigel and vascular endothelial growth factors (FGFb+VEGF) or Hep-3B conditional medium (CM) were mixed, and then a test substance was added thereto and mixed. […]
(c) Hemoglobin content in Matrigel was quantified by a QuantiChrom™ Hemoglobin Assay Kit (DIHB-250) to evaluate the amount of neo-blood vessels in Matrigel.
After subcutaneous injection to BALB/c mice for 14 days, the Matrigel plugs in the subcutaneous tissue of the mouse was taken out and equal amount of dispase was added therein to form a mixture and reacted at 37° C. for 16 hours to dissolve intercellular substance gel. […] After the supernatant was reacted with the reagent for 5 minutes, the optical density (O.D.) at 400 nm therefrom was determined. […]

[2] = test system: growth factor (FGFb+VEGF)-induced angiogenesis; test: Matrigel plugs assay, in vivo growth factor-induced angiogenesis; parameters: species or system BALB/c mice; conditions: orally administered every day 30 mg/kg/day, 14 days
[3] = test system: bFGF-induced corneal neovascularization; test: Rat corneal neovascularization (corneal pocket) assay; type: in vivo, Sprague Dawley rats; conditions: pellet with 60 ng of bFGF plus 1 ug JC-5, day 7
Protocol: Pellets made of the hydron polymer (polyHEME) and a test drug or DMSO were implanted on the corneal surface of rats, and vascular formation thereof was observed.
A hydron polymer (polyHEME) was dissolved in absolute ethanol (12% w/v) in a rotator at 37° C. overnight, and then stored at room temperature before pellet making. Each pellet for the corneal pocket assay contained 60 ng of bFGF, or 1 ug JC-5 and 20 ug of sucralfate in 3 uL of casting gel, which was constituted as a 50:50 (vol/vol) mixture of hydron gel and factor-sucralfate-PBS. The casting gel was promptly pipetted onto an autoclaved, sterilized 20×20-mm piece of nylon mesh with an approximate pore size of 2×2 mm. The pellets were prepared the day before corneal surgery in a laminar flow hood under sterile conditions. Subsequently, the fibers of the mesh were pulled apart, and uniformly sized pellets of 2×2×0.4 mm^3 were selected for implantation. All procedures were performed in sterile conditions. Such pellets can be stored frozen at −20° C. for several days without loss of bioactivity. […] The eyes were exposed, and the maximum vessel length (VL) of the neovascularization zone, extending from the base of the limbal vascular plexus toward the pellet, was measured. […] The contiguous circumferential zone of neovascularization (CN) was measured in clock hours with a 360° reticule (where 30° of arc equals 1 clock hour).

[4] = test system: human umbilical vein endothelial cells (HUVEC); test: Inhibition of HUVEC net structure (tube) formation on ECM/Matrigel; type: cell-based; conditions: group without drug = 100%, read-out: 50% inhibiting concentration (IC50) for inhibiting tube formation
Protocol: The lyophilized powder was dissolved in an appropriate solvent and an in vitro anti-angiogenesis was performed thereto. The ability of the extract for inhibiting net structure formation of human umbilical vein endothelial cells (HUVEC) in extracellular matrix (ECM) or growth factor reduced Matrigel was analyzed, and the forming level of the tube structure thereof was integrated to be used as an indicator for quantification.
Furthermore, by using Matrigel (BD, Cat. No. 356231) as a matrix and observing the state of human umbilical vein endothelial cells (HUVECs) constructing a net structure on the matrix, state of JC-5 (yatein) inhibiting the formation of HUVEC net structure was analyzed. […] The total length of the net structure was calculated through NIS element image analysis software (Nikon; Agent: Lin Trading Co., Ltd. Taiwan), wherein by using the total length of a net structure formed from a group without a drug addition as 100%, the state of JC-5 inhibiting the formation of HUVEC net structure was analyzed.
By using Matrigel (BD, Cat. No. 356231) as a matrix and observing the state of human umbilical vein endothelial cells (HUVECs) constructing a net structure on the matrix, the states of the crude extract (CBT-143-S) and the fractional extract (CBT-143-S-F6F7) inhibiting the formation of HUVEC net structure were analyzed. […]

laser-induced CNV = test: Laser-induced choroidal neovascularization (CNV) assay; type: in vivo, brown Norway rats; conditions: 1 μg/2 ul in DMSO per eye, fluorescein angiography
Excerpt: Male rats (brown Norway rats, purchased from BioLASCO Co., Taiwan) were used. CNV lesions were induced in rat eyes by laser photocoagulation. Briefly, after the rats were anesthetized, their pupils were dilated with 1% tropicamide. A piece of 18×24 mm^2 standard cover glass served as a contact lens for application of photocoagulation. Argon laser irradiation was delivered through a slit lamp. Laser parameters were set as follows: spot size of 50 μm; power of 120 mW; and exposure duration of 0.1 second. An attempt was made to break Bruch's membrane, as clinically evidenced by central bubble formation, with or without intraretinal or choroidal hemorrhage. Four to six lesions were created between the major retinal vessels in each fundus. One day prior to laser treatment, animals received bilateral intravitreal injection of 2 ul JC-5 (1 ug/eye, N=6) or 2 ul vehicle (DMSO, N=6). Fourteen days later, a self-retaining eye speculum was placed in the eye to facilitate administration. […] Rats were analyzed under general anesthesia after dilation of the pupil and subsequent intraperitoneal injection of 0.5 ml of 2.5% fluorescein sodium (Alcon, […], Germany). […] For quantitative analysis of fluorescein leakage, the area of fluorescein leakage, determined as area of hyperfluorescence in which no normal retinal blood vessels were observed, was measured for each burn using ImageJ software (NIH, USA).

Structure (SMILES): CNC(=O)c1cc(Oc2ccc(NC(=O)Nc3ccc(Cl)c(C(F)(F)F)c3)cc2)ccn1 [Sorafenib, sorafenib]
- IC50 (PBMCs): 10.8 ± 0.95 µM
- hemoglobin concentration of the Matrigel plug [1]: 25.05 ± 17.59 mg/dL
- hemoglobin concentration of the Matrigel plug [2]: 27.09 ± 5.88 mg/dL

Structure (SMILES): COc1cc(C[C@H]2C(=O)OC[C@@H]2Cc2ccc3c(c2)OCO3)cc(OC)c1OC [JC-5, yatein]
- neovascular response in implanted cornea [3]: inhibited
- IC50 [4]: 0.335 µM
- CNV lesions areas compared to DMSO-treated vehicles (laser-induced CNV; intravitreal, day 7 and day 14): significantly decreased
- fluorescent dye uptake and extent of CNV (laser-induced CNV): less
